Data as given in US20210221785A1, “AMINO-PYRIMIDONYL DERIVATIVES, A PROCESS FOR THEIR PREPARATION AND PHARMACEUTICAL COMPOSITIONS CONTAINING THEM” (LES LABORATOIRES SERVIER, priority 2018, published 2021).

What was measured:
[1] = target: T1, His-His-USP7 (aa208-560, |C315A|) (Homo sapiens, UniProt Q93009, C315A); assay: Evaluation of the inhibition of USP7 by the Fluorescence Intensity (FLINT) readings; assay type: biochemical; details: 0.25 nM His-His-USP7, compound incubated 60 minutes at 30° C., 500 nM Ubiquitin-Rhodamine-110 substrate; 50% reduction in kinetic rate
T1 construct: His-His-USP7 (aa208-560, |C315A|); His-His (N)
Procedure, shortened: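 0.25 nM His-His-USP7 (aa208–560, C315A) preincubated 60 min at 30 °C with compound in 100 mM Bicine pH 8.0, 0.01% Triton X-100, 1 mM TCEP, 10% DMSO. Reaction started with 500 nM ubiquitin-rhodamine-110 and fluorescence (Ex485/Em535) read every 3 min for 21 min. IC50 derived from kinetic-rate reduction over an 11-point curve, 4-parameter fit.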

[2] = test system: Z138 mantle cell lymphoma tumour cell lines; assay: In vitro cytotoxicity, MTT assay; assay type: cell-based; details: Z138 cells exposed to the test compounds for 96 hours, cell viability vs DMSO treated cells
Experimental: The cytotoxicity studies were evaluated by MTT [3-(4,5-dimethylthiazol-2-yl)-2,5-diphenyltetrazolium bromide] assay and carried out on Z138 mantle cell lymphoma tumour cell lines. The cells are distributed onto microplates and exposed to the test compounds for 96 hours. MTT is then added for 4 hours and converted by NAD(P)H-dependent cellular oxidoreductase enzymes in formazan, which has a purple color. The viable cell number is proportional to the production of formuan salts and cell viability can be quantified by the absorbance of the solution at 540 nm with a speetrophotometer (Carmichael et al., Cancer Res. 1987, 47, 936-942).

T1 sequence (Q93009 208-560 C315A): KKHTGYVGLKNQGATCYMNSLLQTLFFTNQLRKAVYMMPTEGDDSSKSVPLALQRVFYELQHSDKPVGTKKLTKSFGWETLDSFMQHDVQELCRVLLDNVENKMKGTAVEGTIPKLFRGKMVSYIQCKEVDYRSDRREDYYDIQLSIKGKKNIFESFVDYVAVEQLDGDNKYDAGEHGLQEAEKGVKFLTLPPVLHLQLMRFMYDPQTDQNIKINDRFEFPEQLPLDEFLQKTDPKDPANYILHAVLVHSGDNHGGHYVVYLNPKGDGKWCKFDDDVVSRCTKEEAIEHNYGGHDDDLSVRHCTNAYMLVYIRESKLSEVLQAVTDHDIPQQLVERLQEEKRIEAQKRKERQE

Row | SMILES | IC50 [1] [µM] | IC50 ([2]; Homo sapiens, Z-138, 96 h) [µM] | IC50 [2] [µM]
1 | CCC(N)c1ccc(Oc2ncn(CC3(O)CCN(C(=O)[C@@H]4CCC(F)(F)C[C@H]4c4ccccc4)CC3)c(=O)c2N)cc1 (stereo partly drawn) [Example 56, 5-amino-6-[4-(1-aminopropyl)phenoxy]-3-({1-[(1R,2R)-4,4-difluoro-2-phenylcyclohexane-1-carbonyl]-4-hydroxypiperidin-4-yl}methyl)pyrimidin-4(3H)-one] | 0.015 | 0.539 | 
2 | NCc1ccc(Oc2ncn(CC3(O)CCN(C(=O)[C@@H]4CCC(F)(F)C[C@H]4c4ccccc4)CC3)c(=O)c2N)cc1 [Example 59, 5-amino-6-[4-(aminomethyl)phenoxy]-3-({1-[(1R,2R)-4,4-difluoro-2-phenylcyclohexane-1-carbonyl]-4-hydroxypiperidin-4-yl}methyl)pyrimidin-4(3H)-one] | 0.0042 | 0.064 | 
3 | NCc1cccc(Oc2ncn(CC3(O)CCN(C(=O)[C@@H]4CCC(F)(F)C[C@H]4c4ccccc4)CC3)c(=O)c2N)c1 [Example 61, 5-amino-6-[3-(aminomethyl)phenoxy]-3-({1-[(1R,2R)-4,4-difluoro-2-phenylcyclohexane-1-carbonyl]-4-hydroxypiperidin-4-hydroxypiperidin-4-yl}methyl)pyrimidin-4(3H)-one] | 0.0098 | 0.028 | 
4 | Nc1c(Oc2cccc(O)c2)ncn(CC2(O)CCN(C(=O)[C@@H]3CCC(F)(F)C[C@H]3c3ccccc3)CC2)c1=O [Example 64, 5-amino-3-({1-[(1R,2R)-4,4-difluoro-2-phenylcyclohexnne-1-carbonyl]-4-hydroxypiperidin-4-yl}methyl)-6-(3-hydroxyphenoxy)pyrimidin-4(3H)-one] | 0.021 | 0.014 | 
5 | NCc1ccc(Oc2ncn(CC3(O)CCN(C(=O)[C@@H]4CCC(F)(F)C[C@H]4c4ccccc4)CC3)c(=O)c2N)cc1F [Example 65, 5-amino-6-[4-(aminomethyl)-3-fluorophenoxy]-3-({1-[(1R,2R)-4,4-difluoro-2-phenylcyclohexane-1-carbonyl]-4-hydroxypiperidin-4-yl}methyl)pyrimidin-4(3H)-one] | 0.01 | 0.386 | 
6 | NCc1ccc(Oc2ncn(CC3(O)CCN(C(=O)[C@@H]4CCC(F)(F)C[C@H]4c4ccccc4)CC3)c(=O)c2N)cc1Cl [Example 66, 5-amino-6-[4-(aminomethyl)-3-chlorophenoxy]-3-({1-[(1R,2R)-4,4-difluoro-2-phenylcyclohexane-1-carbonyl]-4-hydroxypiperidin-4-yl}methyl)pyrimidin-4(3H)-one] | 0.011 | 0.301 | 
7 | NC(=O)CCc1ccc(Oc2ncn(CC3(O)CCN(C(=O)[C@@H]4CCC(F)(F)C[C@H]4c4ccccc4)CC3)c(=O)c2N)cc1 [Example 67, 3-(4-{[5-amino-1-({1-[(1R,2R)-4,4-difluoro-2-phenylcyclohexane-1-carbonyl]-4-hydroxypiperidin-4-yl}methyl)-6-oxo-1,6-dihydropyrimidin-4-yl]oxy}phenyl)propanamide] | 0.075 | 0.668 | 
8 | NCCCc1ccc(Oc2ncn(CC3(O)CCN(C(=O)[C@@H]4CCC(F)(F)C[C@H]4c4ccccc4)CC3)c(=O)c2N)cc1 [Example 68, 5-amino-6-[4-(3-aminopropyl)phenoxy]-3-([1-[(1R,2R)-4,4-difluoro-2-phenylcyclohexane-1-carbonyl]-4-hydroxypiperidin-4-yl]methyl)pyrimidin-4(3H)-one] | 0.039 | 0.454 | 
9 | Nc1c(Oc2ccc(CNCC(F)(F)F)cc2)ncn(CC2(O)CCN(C(=O)[C@@H]3CCC(F)(F)C[C@H]3c3ccccc3)CC2)c1=O [Example 73, 5-amino-3-({1-[(1R,2R)-4,4-difluoro-2-phenylcyclohexane-1-carbonyl]-4-hydroxypiperidin-4-yl}methyl)-6-(4-[[(2,2,2-trifluoromethyl)amino]methyl]phenoxy)pyrimidin-4(3H)-one] | 0.113 | 0.564 | 
10 | CC(C)(C)NCc1ccc(Oc2ncn(CC3(O)CCN(C(=O)[C@@H]4CCC(F)(F)C[C@H]4c4ccccc4)CC3)c(=O)c2N)cc1 [Example 75, 5-amino-6-{4-[(tert-butylamino)methyl]phenoxy}-3-({1-[(1R,2R)-4,4-difluoro-2-phenylcyclohexane-1-carbonyl]-4-hydroxypiperidin-4-yl}methyl)pyrimidin-4(3H)-one] | 0.01 | 0.184 | 
11 | Nc1c(Oc2ccc(CNCc3ccccc3)cc2)ncn(CC2(O)CCN(C(=O)[C@@H]3CCC(F)(F)C[C@H]3c3ccccc3)CC2)c1=O [Example 76, 5-amino-6-{4-[(benzylamino)methyl]phenoxy}-3-({1-[(1R,2R)-4,4-difluoro-2-phenylcyclohexane-1-carbonyl]-4-hydroxypiperidin-4-yl}methyl)pyrimidin-4(3H)-one] | 0.015 | 0.4 | 
12 | Nc1c(Oc2ccc(CNC3CC3)cc2)ncn(CC2(O)CCN(C(=O)[C@@H]3CCC(F)(F)C[C@H]3c3ccccc3)CC2)c1=O [Example 77] | 0.025 | 0.156 | 
13 | Nc1c(Oc2ccc(F)cc2)ncn(C[C@@]2(O)CCN(C(=O)[C@@H]3CCC(F)(F)C[C@H]3c3ccccc3)CC2(F)F)c1=O [Example 78, 5-amino-3-({(4S)-1-[(1R,2R)-4,4-difluoro-2-phenylcyclohexane-1-carbonyl]-3,3-difluoro-4-hydroxypiperidin-4-yl}methyl)-6-(4-fluorophenoxy)pyrimidin-4(3H)-one] | 0.0575 | 0.115 | 
14 | Nc1c(Oc2ccccc2)ncn(CC2(O)CCN(C(=O)[C@@H]3CC(F)(F)CC[C@H]3c3ccccc3)CC2)c1=O [Example 82, 5-amino-3-({1-[(1R,2R)-5,5-difluoro-2-phenylcyclohexane-1-carbonyl]-4-hydroxypiperidin-4-yl}methyl)-6-phenoxypyrimidin-4(3H)-one] | 0.0903 | 0.18 | 
15 | Nc1c(Oc2ccccc2)ncn(CC2(O)CCN(C(=O)[C@@H]3CCC(F)(F)C[C@H]3n3cccc3)CC2)c1=O [Example 83, 5-amino-3-({1-[(1R,2R)-4,4-difluoro-2-(1H-pyrrol-1-yl)cyclohexane-1-carbonyl]-4-hydroxypiperidin-4-yl}methyl)-6-phenoxypyrimidin-4(3H)-one] | 0.22 | 0.327 | 
16 | Nc1c(Oc2ccc(F)cc2)ncn(CC2(O)CCN(C(=O)[C@@H]3CCC(F)(F)C[C@H]3c3ccsc3)CC2)c1=O [Example 89, 5-amino-3-({1-[(1R,2R)-4,4-difluoro-2-(thiophen-3-yl)cyclohexane-1-carbonyl]-4-hydroxypiperidin-4-yl}methyl)-6-(4-fluorophenoxy)pyrimidin-4(3H)-one] | 0.092 | 0.055 | 
17 | NCc1ccc(Oc2ncn(C[C@@]3(O)CCN(C(=O)[C@@H]4CCC(F)(F)C[C@H]4c4ccccc4)CC3(F)F)c(=O)c2N)cc1 [Example 90, 5-amino-6-[4-(aminomethyl)phenoxy]-3-({(4S)-1-[(1R,2R)-4,4-difluoro-2-phenylcyclohexane-1-carbonyl]-3,3-difluoro-4-hydroxypiperidin-4-yl}methyl)pyrimidin-4(3H)-one] | 0.0039 | 0.16 | 
18 | Nc1c(Oc2cccc(O)c2)ncn(C[C@@]2(O)CCN(C(=O)[C@@H]3CCC(F)(F)C[C@H]3c3ccccc3)CC2(F)F)c1=O [Example 104, 5-amino-3-({(4S)-1-[(1R,2R)-4,4-difluoro-2-phenylcyclohexane-1-carbonyl]-3,3-difluoro-4-hydroxypiperidin-4-yl}methyl)-6-(3-hydroxyphenoxy)pyrimidin-4(3H)-one] | 0.041 | 0.014 | 
19 | CN(C)Cc1ccc(Oc2ncn(CC3(O)CCN(C(=O)[C@@H]4CCC(F)(F)C[C@H]4c4ccccc4)CC3)c(=O)c2N)cc1 [Example 108, 5-amino-3-({1-[(1R,2R)-4,4-difluoro-2-phenylcyclohexane-1-carbonyl]-4-hydroxypiperidin-4-yl}methyl)-6-{4-[(dimethylamino)methyl]phenoxy}pyrimidin-4(3H)-one] | 0.0639 | 0.654 | 
20 | Nc1c(Oc2ccc(F)c(O)c2)ncn(C[C@@]2(O)CCN(C(=O)[C@@H]3CCC(F)(F)C[C@H]3c3ccccc3)CC2(F)F)c1=O [Example 109, 5-amino-3-({(4S)-1-[(1R,2R)-4,4-fluoro-2-phenylcyclohexane-1-carbonyl]-3,3-difluoro-4-hydroxypiperidin-4-yl}methyl)-6-(4-fluoro-3-hydroxyphenoxy)pyrimidin-4(3H)-one] | 0.0403 |  | 0.0155
21 | Nc1c(Oc2ccc(Cl)c(O)c2)ncn(CC2(O)CCN(C(=O)[C@@H]3CCC(F)(F)C[C@H]3c3ccccc3)CC2)c1=O [Example 110, 5-amino-6-(4-chloro-3-hydroxyphenoxy)-3({1-[(1R,2R)-4,4-difluoro-2-phenylcyclohexane-1-carbonyl]-4-hydroxypiperidin-4-yl}methyl)pyrimidin-4(3H)-one] | 0.028 | 0.0254 | 
22 | Cc1ccc(Oc2ncn(CC3(O)CCN(C(=O)[C@@H]4CCC(F)(F)C[C@H]4c4ccccc4)CC3)c(=O)c2N)cc1O [Example 111, 5-amino-3-({1-[(1R,2R)-4,4-difluoro-2-phenylcyclohexane-1-carbonyl]-4-hydroxypiperidin-4-yl}methyl)-6-(3-hydroxy-4-methylphenoxy)pyrimidin-4(3H)-one] | 0.0221 | 0.0588 | 
